Test results published in patent US9745341B2, “Tubulysins and processes for preparing” (priority 2007, dated 2017).

Tested on: folate receptor-positive KB cells
Test: In vitro concentration-dependent cytotoxic activity (3H-thymidine incorporation)
Assay type: cell-based
Conditions: Homo sapiens, KB, read-out: Cytotoxicity IC50 (nM)
Procedure: The compounds described herein are evaluated using an in vitro cytotoxicity assay that predicts the ability of the drug to inhibit the growth of folate receptor-positive KB cells. The KB cells are exposed for up to 7 h at 37° C. over a range of concentrations of folate-drug conjugate in the absence or presence of at least a 100-fold excess of folic acid. The cells are then rinsed once with fresh culture medium and incubated in fresh culture medium for 72 hours at 37° C. Cell viability is assessed using a ^3H-thymidine incorporation assay.
Cells were heavily seeded in 24-well Falcon plates and allowed to form nearly confluent monolayers overnight. Thirty minutes prior to the addition of test article, spent medium was aspirated from all wells and replaced with fresh folate-free RPMI (FFRPMI). Note, designated wells received media containing 100 μM folic acid; and, cells within the latter wells were used to determine the targeting specificity, since cytotoxic activity produced in the presence of excess folic acid (enables competition for FR binding) would signify the portion of the total activity that was unrelated to FR-specific delivery. Following one rinse with 1 mL of fresh FFRPMI containing 10% heat-inactivated fetal calf serum, each well received 1 mL of media containing increasing concentrations of test article (4 wells per sample) in the presence or absence of 100 μM free folic acid (a binding site competitor). Treated cells were pulsed for 2 h at 37° C., rinsed 4 times with 0.5 mL of media, and then chased in 1 mL of fresh media up to 70 h. Spent media was aspirated from all wells and replaced with fresh media containing 5 μCi/mL ^3H-thymidine. Following a further 2 h 37° C. incubation, cells were washed 3 times with 0.5 mL of PBS and then treated with 0.5 mL of ice-cold 5% trichloroacetic acid per well. After 15 min, the trichloroacetic acid was aspirated and the cell material solubilized by the addition of 0.5 mL of 0.25 N sodium hydroxide for 15 min. Four hundred and fifty μL of each solubilized sample were transferred to scintillation vials containing 3 mL of Ecolume scintillation cocktail and then counted in a liquid scintillation counter. Final results are expressed as the percentage of ^3H-thymidine incorporation relative to untreated controls.
As shown in the following table, dose-dependent cytotoxicity is measurable, and in most cases, the IC50 values (concentration of drug conjugate required to reduce ^3H-thymidine incorporation into newly synthesized DNA by 50%) are in the low nanomolar range.

First: CCC(C)[C@H](NC(=O)[C@H]1CCCCN1C)C(=O)N(CSCCS)[C@H](C[C@@H](OC(C)=O)c1nc(C(=O)N[C@@H](Cc2ccc(O)cc2)C[C@H](C)C(=O)O)cs1)C(C)C (stereo partly drawn) [EC0374, 2-Mercaptoethylthio Tubulysin]
Second: CCCSCN(C(=O)[C@@H](NC(=O)[C@H]1CCCCN1C)C(C)CC)[C@H](C[C@@H](OC(C)=O)c1nc(C(=O)N[C@@H](Cc2ccc(O)cc2)C[C@H](C)C(=O)O)cs1)C(C)C (stereo partly drawn) [EC0623]
The IC50 of the first is 50-fold higher: 24 nM for the first, 0.48 nM for the second.

First: C=CCCN(C(=O)[C@@H](NC(=O)[C@H]1CCCCN1C)C(C)CC)[C@H](C[C@@H](OC(C)=O)c1nc(C(=O)N[C@@H](Cc2ccc(O)cc2)C[C@H](C)C(=O)O)cs1)C(C)C (stereo partly drawn) [EC0550, N-Homoallyl Tubulysin]
Second: CCC(C)[C@H](NC(=O)[C@H]1CCCCN1C)C(=O)N(CO)[C@H](C[C@@H](OC(C)=O)c1nc(C(=O)N[C@@H](Cc2ccc(O)cc2)C[C@H](C)C(=O)O)cs1)C(C)C (stereo partly drawn) [EC0386]
The IC50 of the first is 21-fold lower: 2 nM for the first, 42 nM for the second. The first is the more potent here.

First: CCC(C)[C@H](NC(=O)[C@H]1CCCCN1C)C(=O)N(COCCO)[C@H](C[C@@H](OC(C)=O)c1nc(C(=O)N[C@@H](Cc2ccc(O)cc2)C[C@H](C)C(=O)O)cs1)C(C)C (stereo partly drawn) [EC0346, 2-Hydroxyethoxy Tubulysin]
Second: CCC(C)[C@H](NC(=O)[C@H]1CCCCN1C)C(=O)N(COCCC(C)C)[C@H](C[C@@H](OC(C)=O)c1nc(C(=O)N[C@@H](Cc2ccc(O)cc2)C[C@H](C)C(=O)O)cs1)C(C)C (stereo partly drawn) [EC0356]
The IC50 of the first is 1.5-fold higher: 18 nM for the first, 12 nM for the second. The second is the more potent here.

For CCC(C)[C@H](NC(=O)[C@H]1CCCCN1C)C(=O)N(COC)[C@H](C[C@@H](OC(C)=O)c1nc(C(=O)N[C@@H](Cc2ccc(O)cc2)C[C@H](C)C(=O)O)cs1)C(C)C (stereo partly drawn) [EC0313, Methoxy Tubulysin], the IC50 was 9 nM.

Same assay, conditions: concentration required to reduce 3H-thymidine incorporation into newly synthesized DNA by 50%; 2 h pulse at 37° C., chase up to 70 h; read-out: Cytotoxicity IC50

CC[C@H](C)[C@H](NC(=O)[C@H]1CCCCN1C)C(=O)N(COC(=O)CC(C)C)[C@H](C[C@@H](OC(C)=O)c1nc(C(=O)N[C@@H](Cc2ccc(O)cc2)C[C@H](C)C(=O)O)cs1)C(C)C [Tubulysin A, reference compound] and Tubulysin B [reference compound] are within 1.5-fold of each other in IC50: 2 nM for the first, 2.6 nM for the second.
